Laboratory results as given in patent US12577206B2 (BRISTOL-MYERS SQUIBB COMPANY, priority 2020, dated 2026).

How the values were obtained:
[1] = target: T1, human FPR2 (Homo sapiens, UniProt P25090); test: FPR2 cyclic adenosine monophosphate (cAMP) assay; assay type: cell-based; details: CHO cells overexpressing human FPR2; forskolin 5 μM; inhibition of cAMP production; HTRF; read-out: hFPR2 cAMP2 EC50
T1 sequence (P25090 1-351): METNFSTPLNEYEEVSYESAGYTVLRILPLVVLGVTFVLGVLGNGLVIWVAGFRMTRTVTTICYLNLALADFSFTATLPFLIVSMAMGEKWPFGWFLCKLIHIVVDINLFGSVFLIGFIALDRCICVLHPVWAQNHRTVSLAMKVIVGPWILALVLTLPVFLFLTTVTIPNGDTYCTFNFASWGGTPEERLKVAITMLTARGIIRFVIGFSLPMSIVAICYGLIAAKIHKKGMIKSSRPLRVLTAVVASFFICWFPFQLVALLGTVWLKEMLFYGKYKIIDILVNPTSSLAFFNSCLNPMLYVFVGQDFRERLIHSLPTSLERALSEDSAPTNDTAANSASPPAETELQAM
Method in brief: (§1)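 CHO/hFPR1 4,000 cells/well, forskolin 10 μM final; CHO/hFPR2 2,000 cells/well, forskolin 5 μM final. IBMX 200 μM, DMSO 1%, DPBS + Ca/Mg + 0.1% BSA, 30 min rt. HTRF cAMP; 4-PL fit.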

[2] = target: T2, human FPR1 (Homo sapiens, UniProt P21462); test: FPR1 cyclic adenosine monophosphate (cAMP) assay; assay type: cell-based; details: CHO cells overexpressing human FPR1; forskolin 10 μM; inhibition of cAMP production; HTRF; read-out: hFPR1 cAMP2 EC50
T2 sequence (P21462 1-350): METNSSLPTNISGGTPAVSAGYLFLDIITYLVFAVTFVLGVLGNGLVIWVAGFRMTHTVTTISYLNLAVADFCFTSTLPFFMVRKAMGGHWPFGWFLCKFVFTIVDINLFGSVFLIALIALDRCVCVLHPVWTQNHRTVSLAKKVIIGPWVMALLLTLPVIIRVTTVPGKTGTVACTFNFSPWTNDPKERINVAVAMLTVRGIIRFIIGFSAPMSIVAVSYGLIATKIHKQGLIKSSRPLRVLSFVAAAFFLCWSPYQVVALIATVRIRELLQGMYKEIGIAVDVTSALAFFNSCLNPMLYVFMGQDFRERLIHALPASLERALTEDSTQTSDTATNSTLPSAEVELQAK
Method in brief: as §1

Row | SMILES | EC50 [1] | EC50 [2]
1 | COCCNc1ccc(C(F)(F)F)c(-n2c(=O)c(NC(=O)c3ccc(OC(F)F)cc3)c(-c3c(F)cc(OC)cc3F)n2C)n1 [Example 235, N-[5-(2,6-difluoro-4-methoxyphenyl)-2-{6-[(2-methoxyethyl)amino]-3-(trifluoromethyl)pyridin-2-yl}-1-methyl-3-oxo-2,3-dihydro-1H-pyrazol-4-yl]-4-(difluoromethoxy)benzamide] | 1 nM | > 10000 nM
2 | COc1cc(F)c(-c2c(NC(=O)c3ccc(OC(F)F)cc3)c(=O)n(-c3nc(N[C@H](C)CO)ccc3C(F)(F)F)n2C)c(F)c1 [Example 236, N-[5-(2,6-difluoro-4-methoxyphenyl)-2-(6-{[(2R)-1-hydroxypropan-2-yl]amino}-3-(trifluoromethyl)pyridin-2-yl)-1-methyl-3-oxo-2,3-dihydro-1H-pyrazol-4-yl]-4-(difluoromethoxy)benzamide] | 9 nM | > 10000 nM
3 | CNC(=O)CNc1ccc(C(F)(F)F)c(-n2c(=O)c(NC(=O)c3ccc(OC(F)F)cc3)c(-c3c(F)cc(OC)cc3F)n2C)n1 [Example 238, N-[5-(2,6-difluoro-4-methoxyphenyl)-1-methyl-2-(6-{[(methylcarbamoyl)methyl]amino}-3-(trifluoromethyl)pyridin-2-yl)-3-oxo-2,3-dihydro-1H-pyrazol-4-yl]-4-(difluoromethoxy)benzamide] | 3 nM | > 10000 nM
4 | COc1cc(F)c(-c2c(NC(=O)c3ccc(OC(F)F)cc3)c(=O)n(-c3nc(N4CCN(CC(F)F)CC4)ccc3Cl)n2C)c(F)c1 [Example 240, N-(2-{3-chloro-6-[4-(2,2-difluoroethyl)piperazin-1-yl]pyridin-2-yl}-5-(2,6-difluoro-4-methoxyphenyl)-1-methyl-3-oxo-2,3-dihydro-1H-pyrazol-4-yl)-4-(difluoromethoxy)benzamide] | 2 nM | 1300 nM
5 | COc1cc(F)c(-c2c(NC(=O)c3ccc(OC(F)F)cc3)c(=O)n(-c3nc(N(C)S(C)(=O)=O)ccc3C(F)(F)F)n2C)c(F)c1 [Example 241, N-[5-(2,6-difluoro-4-methoxyphenyl)-1-methyl-2-[6-(N-methylmethanesulfonamido)-3-(trifluoromethyl)pyridin-2-yl]-3-oxo-2,3-dihydro-1H-pyrazol-4-yl]-4-(difluoromethoxy)benzamide] | 2 nM | > 10000 nM
6 | COc1cc(F)c(-c2c(NC(=O)c3ccc(OC(F)F)cc3)c(=O)n(-c3nc(N[C@H](C)C4CC4)ccc3C(F)(F)F)n2C)c(F)c1 [Example 243, N-[2-(6-{[(1R)-1-cyclopropylethyl]amino}-3-(trifluoromethyl)pyridin-2-yl)-5-(2,6-difluoro-4-methoxyphenyl)-1-methyl-3-oxo-2,3-dihydro-1H-pyrazol-4-yl]-4-(difluoromethoxy)benzamide] | 6 nM | > 10000 nM
7 | CCc1ccc(N2CCN(C)CC2)nc1-n1c(=O)c(NC(=O)c2ccc(OC(F)F)cc2)c(-c2c(F)cc(OC)cc2F)n1C [Example 244, N-[5-(2,6-difluoro-4-methoxyphenyl)-2-[3-ethyl-6-(4-methylpiperazin-1-yl)pyridin-2-yl]-1-methyl-3-oxo-2,3-dihydro-1H-pyrazol-4-yl]-4-(difluoromethoxy)benzamide] | 35 nM | > 10000 nM
8 | COc1cc(F)c(-c2c(NC(=O)c3ccc(OC(F)F)cc3)c(=O)n(-c3nc(NC4CC4)ccc3C(F)(F)F)n2C)c(F)c1 [Example 251, N-{2-[6-(cyclopropylamino)-3-(trifluoromethyl)pyridin-2-yl]-5-(2,6-difluoro-4-methoxyphenyl)-1-methyl-3-oxo-2,3-dihydro-1H-pyrazol-4-yl}-4-(difluoromethoxy)benzamide] | 2 nM | > 10000 nM
9 | COc1cc(F)c(-c2c(NC(=O)c3ccc(OC(F)F)cc3)c(=O)n(-c3nc(NCC(=O)N(C)C)ccc3C(F)(F)F)n2C)c(F)c1 [Example 252, N-[5-(2,6-difluoro-4-methoxyphenyl)-2-(6-{[(dimethylcarbamoyl)methyl]-amino}-3-(trifluoromethyl)pyridin-2-yl)-1-methyl-3-oxo-2,3-dihydro-1H-pyrazol-4-yl]-4-(difluoromethoxy)benzamide] | 12 nM | > 10000 nM

Other lines, results leading:

Row | EC50 [1] | EC50 [2] | SMILES
10 | 3 nM | 2900 nM | COc1cc(F)c(-c2c(NC(=O)c3ccc(OC(F)F)cc3)c(=O)n(-c3nc(Nc4ncn[nH]4)ccc3C(F)(F)F)n2C)c(F)c1 [Example 234, N-[5-(2,6-difluoro-4-methoxyphenyl)-1-methyl-3-oxo-2-{6-[(1H-1,2,4-triazol-5-yl)amino]-3-(trifluoromethyl)pyridin-2-yl}-2,3-dihydro-1H-pyrazol-4-yl]-4-(difluoromethoxy)benzamide]
11 | 1 nM | > 5000 nM | COc1cc(F)c(-c2c(NC(=O)c3ccc(OC(F)F)cc3)c(=O)n(-c3nc(N[C@@H](C)CO)ccc3C(F)(F)F)n2C)c(F)c1 [Example 237, N-[5-(2,6-difluoro-4-methoxyphenyl)-2-(6-{[(2S)-1-hydroxypropan-2-yl]amino}-3-(trifluoromethyl)pyridin-2-yl)-1-methyl-3-oxo-2,3-dihydro-1H-pyrazol-4-yl]-4-(difluoromethoxy)benzamide]
12 | 5 nM | 2700 nM | COc1cc(F)c(-c2c(NC(=O)c3ccc(OC(F)F)cc3)c(=O)n(-c3nc(N4CCN(CC(F)(F)F)CC4)ccc3Cl)n2C)c(F)c1 [Example 239, N-(2-{3-chloro-6-[4-(2,2,2-trifluoroethyl)piperazin-1-yl]pyridin-2-yl}-5-(2,6-difluoro-4-methoxyphenyl)-1-methyl-3-oxo-2,3-dihydro-1H-pyrazol-4-yl)-4-(difluoromethoxy)benzamide]
13 | 20 nM | > 10000 nM | COc1cc(F)c(-c2c(NC(=O)c3ccc(OC(F)F)cc3)c(=O)n(-c3nc(Cl)ccc3Cl)n2C)c(F)c1 [Example 242, N-[2-(3,6-dichloropyridin-2-yl)-5-(2,6-difluoro-4-methoxyphenyl)-1-methyl-3-oxo-2,3-dihydro-1H-pyrazol-4-yl]-4-(difluoromethoxy)benzamide]
14 | 20 nM | 1200 nM | COc1ccc(-c2c(NC(=O)c3ccc(OC(F)F)cc3)c(=O)n(-c3ncccc3Cl)n2C)cc1 [Example 245, N-[2-(3-chloropyridin-2-yl)-5-(4-methoxyphenyl)-1-methyl-3-oxo-2,3-dihydro-1H-pyrazol-4-yl]-4-(difluoromethoxy)benzamide]
15 | 315 nM | > 10000 nM | COc1ccc(-c2c(NC(=O)c3ccc(OC(F)F)cc3)c(=O)n(-c3ncccc3C(F)(F)F)n2C)cc1C [Example 246, 4-(difluoromethoxy)-N-(5-(4-methoxy-3-methylphenyl)-1-methyl-3-oxo-2-(3-(trifluoromethyl)pyridin-2-yl)-2,3-dihydro-1H-pyrazol-4-yl)benzamide]
16 | 5 nM | 630 nM | COc1cc(F)c(-c2c(NC(=O)c3ccc(OC(F)F)cc3)c(=O)n(-c3nc(N4CCN(S(C)(=O)=O)CC4)ccc3Cl)n2C)c(F)c1 [Example 247, N-{2-[3-chloro-6-(4-methanesulfonylpiperazin-1-yl)pyridin-2-yl]-5-(2,6-difluoro-4-methoxyphenyl)-1-methyl-3-oxo-2,3-dihydro-1H-pyrazol-4-yl}-4-(difluoromethoxy)benzamide]
17 | 8 nM | > 10000 nM | CCOc1ccc(Cl)nc1-n1c(=O)c(NC(=O)c2ccc(OC(F)F)cc2)c(-c2c(F)cc(OC)cc2F)n1C [Example 248, N-[2-(6-chloro-3-ethoxypyridin-2-yl)-5-(2,6-difluoro-4-methoxyphenyl)-1-methyl-3-oxo-2,3-dihydro-1H-pyrazol-4-yl]-4-(difluoromethoxy)benzamide]
18 | 38 nM | 510 nM | Cn1c(-c2ccc(Cl)cc2)c(NC(=O)c2ccc(OC(F)F)cc2)c(=O)n1-c1ncccc1C(F)(F)F [Example 249, N-[5-(4-chlorophenyl)-1-methyl-3-oxo-2-[3-(trifluoromethyl)pyridin-2-yl]-2,3-dihydro-1H-pyrazol-4-yl]-4-(difluoromethoxy)benzamide]
19 | 13 nM | 970 nM | COc1ccc(-c2c(NC(=O)c3ccc(OC(F)F)cc3)c(=O)n(-c3ncccc3C(F)(F)F)n2C)cc1 [Example 250, 4-(difluoromethoxy)-N-[5-(4-methoxyphenyl)-1-methyl-3-oxo-2-[3-(trifluoromethyl)pyridin-2-yl]-2,3-dihydro-1H-pyrazol-4-yl]benzamide]
